Data from patent US8080544B2, “Prodrugs of CGRP receptor antagonists” (Merck Sharp & Dohme Corp., priority 2008, dated 2011).
Converted amounts (≈) assume the structure as drawn.

Tests used:
Aqueous solubility = type: physicochemical; settings: for solubility: aqueous solution
From the text: The compounds of the present invention may have improved aqueous solubility compared with telcagepant.

[1] = In vivo conversion to telcagepant after IV dosing, rat (plasma AUC by LC/MS); settings: 3.53 umol/kg, IV dose 3.53 μmol/kg, DMSO vehicle, plasma AUC of Compound 1 (telcagepant)
From the text: The compounds of the present invention may be efficiently converted to give parent telcagepant in vivo. For illustrative purposes, data for the in vivo conversion of Example 1 to telcagepant in preclinical species are shown in Table 2.

solubility (Aqueous solubility; aqueous buffer, pH 4.0) [µg/mL] | solubility (Aqueous solubility; aqueous buffer, pH 9.0) [µg/mL] | AUC [1] [µM·h] | solubility (Aqueous solubility; aqueous buffer, pH 2.0) [µg/mL] | solubility (Aqueous solubility; pH 7.3, aqueous buffer) [µg/mL] | aqueous solubility (in words) (Aqueous solubility; general statement, no pH given) | Compound
> 150000 | > 150000 | – | – | – | – | O=C(N[C@@H]1CC[C@@H](c2cccc(F)c2F)CN(CC(F)(F)F)C1=O)N1CCC(n2c(=O)n(COP(=O)([O-])O)c3ncccc32)CC1.[Na+] [Example 1, {1-[1-({[(3R,6S)-6-(2,3-Difluorophenyl)-2-oxo-1-(2,2,2-trifluoroethyl)azepan-3-yl]amino}carbonyl)piperidin-4-yl]-2-oxo-1,2-dihydro-3H-imidazo[4,5-b]pyridin-3-yl}methyl hydrogen sodium phosphate]
– | – | 6.46 | 77 (≈ 136 µM) | 31 (≈ 54.7 µM) | low aqueous solubility | O=C(N[C@@H]1CC[C@@H](c2cccc(F)c2F)CN(CC(F)(F)F)C1=O)N1CCC(n2c(=O)[nH]c3ncccc32)CC1 [Telcagepant, N-[(3R,6S)-6-(2,3-difluorophenyl)-2-oxo-1-(2,2,2-trifluoroethyl)azepan-3-yl]-4-(2-oxo-2,3-dihydro-1H-imidazo[4,5-b]pyridine-1-yl)piperidin-1-carboxamide]
